Experimental data taken from US12162840B2, “Herbicidal compositions” (SYNGENTA PARTICIPATIONS AG, priority 2018, dated 2024).

Legend:
Experiment in all cases: B1 Post-emergence efficacy Test 1
Assay type in all cases: in vivo
Conditions in all cases: post-emergence application, 1000 g/ha, evaluated after 13 days
[1] = test system: Amaranthus retoflexus (AMARE)
Description: (§1) Seeds of a variety of test species are sown in standard soil in pots:—Solanum nigrum (SOLNI), Amaranthus retoflexus (AMARE), Setaria faberi (SETFA), Alopecurus myosuroides (ALOMY), Echinochloa crus-galli (ECHCG), Ipomoea hederacea (IPOHE), Lolium perenne (LOLPE). After 8 days cultivation (post-emergence) under controlled conditions in a glasshouse (at 24/16° C., day/night; 14 hours light; 65% humidity), the plants are sprayed with an aqueous spray solution derived from the formulation of the technical active ingredient in acetone/water (50:50) solution containing 0.5% Tween 20 (polyoxyethylene sorbitan monolaurate, CAS RN 9005-64-5). Compounds are applied at 1000 g/ha. The test plants are then grown in a glasshouse under controlled conditions in a glasshouse (at 24/16° C., day/night; 14 hours light; 65% humidity) and watered twice daily. After 13 days, the test is evaluated for the percentage damage caused to the plant. The biological activities are assessed on a five point scale (5=80-100%; 4=60-79%; 3=40-59%; 2=20-39%; 1=0-19%). A blank value in the table is indicative that the compound was not tested on that species.

[2] = test system: Echinochloa crus-galli (ECHCG)
Description: as §1

[3] = test system: Ipomoea hederacea (IPOHE)
Description: as §1

Lolium perenne (LOLPE) = test system: Lolium perenne (LOLPE)
Description: as §1

Setaria faberi (SETFA) = test system: Setaria faberi (SETFA)
Description: as §1

Solanum nigrum (SOLNI) = test system: Solanum nigrum (SOLNI)
Description: as §1

Compound	percentage damage caused to the plant, five point scale, AMARE [1]	percentage damage caused to the plant, five point scale, ECHCG [2]	percentage damage caused to the plant, five point scale, IPOHE [3]	percentage damage caused to the plant, five point scale, LOLPE (Lolium perenne (LOLPE))	percentage damage caused to the plant, five point scale, SETFA (Setaria faberi (SETFA))	percentage damage caused to the plant, five point scale, SOLNI (Solanum nigrum (SOLNI))
Cc1nn(C)c(=O)c(-c2c(F)ccc(Cl)c2/C=C/c2ccccc2)c1O [Compound 1.002]	4 (4=60-79%)	4 (4=60-79%)	5 (5=80-100%)	4 (4=60-79%)	3 (3=40-59%)	5 (5=80-100%)
Cc1nn(C)c(=O)c(-c2c(F)ccc(Cl)c2CCc2cccnc2)c1O [Compound 1.054]	5 (5=80-100%)	5 (5=80-100%)	5 (5=80-100%)	5 (5=80-100%)	5 (5=80-100%)	5 (5=80-100%)
Cc1nn(C)c(=O)c(-c2c(F)ccc(Cl)c2CCc2ccc(Cl)cc2)c1O [Compound 1.012]	5 (5=80-100%)	5 (5=80-100%)	5 (5=80-100%)	5 (5=80-100%)	5 (5=80-100%)	5 (5=80-100%)
Cc1nn(C)c(=O)c(-c2c(F)ccc(Cl)c2CCc2ccc(F)c(F)c2)c1O [Compound 1.060]	5 (5=80-100%)	5 (5=80-100%)	5 (5=80-100%)	5 (5=80-100%)	5 (5=80-100%)	5 (5=80-100%)
Cc1nn(C)c(=O)c(-c2c(F)ccc(Cl)c2CCc2ccc(C(F)(F)F)cc2)c1OC(=O)C(C)C [Compound 1.095]	5 (5=80-100%)	5 (5=80-100%)	5 (5=80-100%)	5 (5=80-100%)		5 (5=80-100%)
Cc1nn(C)c(=O)c(-c2c(F)ccc(Cl)c2CCc2ccccc2)c1O [Compound 1.001]	5 (5=80-100%)	5 (5=80-100%)	5 (5=80-100%)	5 (5=80-100%)	5 (5=80-100%)	5 (5=80-100%)
Cc1nn(C)c(=O)c(-c2c(F)ccc(Cl)c2CCc2ccc(C(F)(F)F)cc2)c1O [Compound 1.018]	5 (5=80-100%)	5 (5=80-100%)	5 (5=80-100%)	5 (5=80-100%)	5 (5=80-100%)	5 (5=80-100%)
Cc1ccc(CCc2c(Cl)ccc(F)c2-c2c(OC(=O)C(C)C)c(C)nn(C)c2=O)cc1 [Compound 1.149]	5 (5=80-100%)	5 (5=80-100%)	5 (5=80-100%)	5 (5=80-100%)	5 (5=80-100%)	5 (5=80-100%)
